Data on 4 molecules can be found in patent US6849421B2, “Assays for compounds modulating human serine protease C-E” (Ortho-McNeil Pharmaceutical, Inc., priority 1999, dated 2005).

Ends that are not written are not given here. * marks the point of attachment. pNA = O=[N+]([O-])c1ccc(N*)cc1

Test [1] has as its target T1, activated protease C-E-6XHIS (Homo sapiens, UniProt Q9GZN4).
T1 construct: made in house; host or cells: Sf9 insect cells (baculovirus, pFastBac1)
T1 sequence (Q9GZN4 with tags, fused parts or gaps): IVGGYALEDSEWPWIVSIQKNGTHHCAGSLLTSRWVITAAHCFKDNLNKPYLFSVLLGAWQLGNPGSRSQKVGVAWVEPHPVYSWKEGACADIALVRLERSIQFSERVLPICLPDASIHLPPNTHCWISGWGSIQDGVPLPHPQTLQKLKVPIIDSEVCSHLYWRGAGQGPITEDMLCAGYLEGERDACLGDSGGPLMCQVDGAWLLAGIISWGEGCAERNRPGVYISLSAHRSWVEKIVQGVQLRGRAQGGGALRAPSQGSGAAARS
Description: Chromogenic amidolytic activity assay, release of para-nitroaniline (pNA) from synthetic substrates. The test is classed as biochemical. The conditions noted are these: recombinant activated protease C-E-6XHIS; substrate 500 uM; 10 mM Tris-HCl pH 7.8, 25 mM NaCl, 25 mM imidazole; 37° C., 90 minutes; 405 nm; N.A. = No Activity. The protocol: Eluted protein concentration was determined by a Micro BCA Kit (Pierce, Rockford, Ill.) using bovine serum albumin as a standard. Amidolytic activities of the activated protease C-E-6XHIS was monitored by release of para-nitroaniline (pNA) from the synthetic substrates indicated in Table 1. The chromogenic substrates used in these studies were all commercially available (Bachem California Inc., Torrance, Pa.; American Diagnostica Inc., Greenwich, Conn.; Kabi Pharmacia Hepar Inc., Franklin, Ohio). Assay mixtures contained chromogenic substrates at 500 uM and 10 mM Tris-HCl (pH 7.8), 25 mM NaCl, and 25 mM imidazole. Release of pNA was measured over 90 minutes at 37° C. on a micro-plate reader (Molecular Devices, Menlo Park, Calif.) with a 405 mn absorbance filter. The initial reaction rates (Vmax, mOD/min) were determined from plots of absorbance versus time using Softmax (Molecular Devices, Menlo Park, Calif.). The specific activities (nmole pNA produced/min/μg protein) of the activated protease C-E-6XHIS for the various substrates are presented in Table 1.
Amidolytic activities of the activated serine proteases are monitored by release of para-nitroaniline (pNA) from synthetic substrates that are commercially available (Bachem California Inc., Torrance, Pa.; American Diagnostica Inc., Greenwich, Conn.; Kabi Pharmacia Hepar Inc., Franklin, Ohio). Assay mixtures contain chromogenic substrates in 500 uM and 10 mM TRIS-HCl (pH 7.8), 25 mM NaCl, and 25 mM imidazole. Release of pNA is measured over 120 min at 37° C. on a micro-plate reader (Molecular Devices, Menlo Park, Calif.) with a 405 nm absorbance filter. The initial reaction rates (Vmax, mOD/min) are determined from plots of absorbance versus time using Softmax (Molecular Devices, Menlo Park, Calif.). […] Although in the present case chromogenic activity is monitored by an increase in absorbance, fluorogenic assays or other methods such as FRET to measure proteolytic activity as mentioned above, can be employed. […]

The nature of test [2]: Chromogenic amidolytic activity of the purified unactivated zymogen. It counts as biochemical, human. The settings on record: not cleaved with enterokinase, same chromogenic substrates.

For Phe-Arg-pNA, in test [1], the “Specific Activity” value is 0.058 ± 0.006 nmole pNA produced/min/μg protein.
The same measure, in the same setting: in the case of H—D—Pro—HHT—Arg—pNA it was 0.008 ± 0.001 nmole pNA produced/min/μg protein.
The same measure, in the same setting: under H—D—Lys(CBO)—Pro—Arg—pNA stands 0.002 ± 0.000 nmole pNA produced/min/μg protein.

B1: PFEK-protease C-E-6XHIS zymogen: secreted recombinant zymogen of human serine protease C-E catalytic domain with FLAG, enterokinase site and 6XHIS tag, from Sf9 cells (protein)
chain: MDSKGSSQKSRLLLLLVVSNLLLCQGVVSDYKDDDDVDAAALAAPFDDDDKIVGGYALEDSEWPWIVSIQKNGTHHCAGSLLTSRWVITAAHCFKDNLNKPYLFSVLLGAWQLGNPGSRSQKVGVAWVEPHPVYSWKEGACADIALVRLERSIQFSERVLPICLPDASIHLPPNTHCWISGWGSIQDGVPLPHPQTLQKLKVPIIDSEVCSHLYWRGAGQGPITEDMLCAGYLEGERDACLGDSGGPLMCQVDGAWLLAGIISWGEGCAERNRPGVYISLSAHRSWVEKIVQGVQLRGRAQGGGALRAPSQGSGAAARSSRHHHHHH
Consider B1, for which, in test [2], the chromogenic amidolytic activity entry is listed as “No measurable chromogenic amidolytic activity”.
